Assay results published in publication PMC7920274, “Targeting of CXCR4 by the Naturally Occurring CXCR4 Antagonist EPI-X4 in Waldenström’s Macroglobulinemia” (Cancers, 2021).
“Also recorded” adds a separate entry of the source.

Experiments:
[1] = tested on: CXCR4 mutant-expressing cells; settings: cited from earlier work
[2] = tested on: mitochondrial cytotoxicity; settings: cited from earlier work
CXCR7 = tested on: CXCR7; parameters: method as in PMID 25921529; settings: cited from earlier work
[3] = tested on: ERK1 (Tyr204)/ERK2 (Tyr187) phosphorylation, CXCR4 transduced BCWM.1 cells; assay: ERK phosphorylation by flow cytometry, CXCR4-transduced BCWM.1 cells; format: cell-based; settings: wild-type or mutated CXCR4 or empty vector control; Figure S5B
Protocol: Cells (100,000) were seeded in 100 µL starvation medium (RPMI, 1% FCS) and starved for 2 h. 5 µL compound in PBS was added and cells were further incubated for 15 min. Afterwards, 5 µL CXCL12 (100 ng/mL final concentration on cells) was added for 2 min before the reaction was stopped by adding PFA and shifting to 4 °C. After 15 min, medium was removed by centrifugation and cells permeabilized by adding ice cold MetOH for 15 min. Cells were then washed and the first antibody was added (phospho-p44/42 MAPK (Erk1) (Tyr204)/(Erk2) (Tyr187) (D1H6G) mouse mAb (Cell Signaling, Danvers, Massachusetts, USA, #5726) and phospho-Akt (Ser473) (193H12) rabbit mAb (Cell Signaling, #4058)) for 2 h and stained with adequate secondary antibody afterwards. Cells were analyzed by flow cytometry with FACS Cytoflex (Beckman Coulter, Brea, CA, USA). For time-kinetic experiments, fold-stimulation was determined by MFI (stimulated)/MFI (unstimulated) for each time point. For inhibition experiments, MFI from unstimulated cells was subtracted from each point and signal of stimulated cells without inhibitor normalized to 100%.

WM cells = assay: Transwell migration of WM cells, general statement; format: cell-based; settings: 10 nM CXCL12, 2 h, 37 °C; non-specific migration 3,4%; CellTiter-Glo
Protocol: 10 nM CXCL12 was supplemented to the lower chamber. After 2 h incubation at 37 °C, 5% CO2, cells that had migrated to the lower compartment were analyzed using the CellTiter-Glo Luminescent Cell Viability Assay (Promega, Madison, WI, USA) according to the manufacturer’s instructions. Percentage of specific migration was calculated using the following formula: % migration = ((specific migration-unspecific migration)/total cells) × 100. The average of absolute percentage of non-specific migration was very low in some experiments with 3,4% compared to an average of 81% CXCL12 induced migration.

Molecule | Abrogation of CXCL12 rescue from ibrutinib-induced apoptosis [1] | Mitochondrial cytotoxicity [2] | Interaction with CXCR7 (CXCR7) | CXCL12 effect on phosphorylation / MAPK signaling [3] | CXCL12 induced migration, average (WM cells) [%]
c1cc(CN2CCCNCCNCCCNCC2)ccc1CN1CCCNCCNCCCNCC1 [AMD3100] | the effect could be abrogated by adding plerixafor | do not exert mitochondrial cytotoxicity, in contrast to AMD3100 | acts as an allosteric agonist of this receptor |  | 
CXCL12: chemokine ligand CXCL12 |  |  |  | increased upon CXCL12 stimulation; also recorded: increases MAPK signaling in cells expressing CXCR4 wildtype constitutively to the same extent as in CXCR4-mutant cells | 81
